Experimental data published in patent US20220073536A1 (Rigel Pharmaceuticals, Inc., priority 2003, published 2022).
Read-outs that look alike come from different tables or passages of the source.

Test system: cultured human mast cells (CHMC)
Assay: CHMC low cell density IgE activation: tryptase assay
Assay type: cell-based
Conditions: low cell density, IgE activation
How it was run: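 CHMC at 1000–1500 cells/well were preincubated 1 hr at 37° C., stimulated with anti-IgE for 30 minutes at 37° C., then pelleted. Supernatant tryptase was measured with a fluorogenic substrate after 30 min at room temperature, against un-stimulated control wells.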

[1] = Homo sapiens, Mast cell, 3 pt, read-out: LD Tryptase, CHMC, IgE, 3 pt
[2] = Homo sapiens, Mast cell, 8 pt, read-out: LD Tryptase, CHMC, IgE, 8 pt
[3] = 3 pt, read-out: LD Tryptase, CHMC, IgE, 3 pt
[4] = 8 pt, read-out: LD Tryptase, CHMC, IgE, 8 pt

SMILES	IC50 [1] [µM]	IC50 [2] [µM]	other results
COc1ccc(Nc2nc(Nc3ccc4cnn(C(C)C)c4c3)ncc2F)nc1Cl [Compound 888]	< 10		
COc1ccc(Nc2nc(Nc3ccc4c(c3)NC(=O)C(C)(C)O4)ncc2F)nc1Cl [Compound 889]	< 10		
COc1ccc(Nc2nc(Nc3ccc4c(cnn4CCCNC(C)=O)c3)ncc2F)nc1Cl [Compound 890]	< 10		
COc1ccc(Nc2nc(Nc3ccc4c(cnn4CCCNC(=O)C4CC4)c3)ncc2F)nc1Cl [Compound 891]	< 10		
COc1ccc(Nc2nc(Nc3ccc4c(cnn4CCCNC(=O)C(C)(C)C)c3)ncc2F)nc1Cl [Compound 892]	< 10		
COc1ccc(Nc2nc(Nc3ccc4c(cnn4CCCNC(=O)C(C)C)c3)ncc2F)nc1Cl [Compound 893]	< 10		
Cc1nc2cc(Nc3ncc(F)c(Nc4ccc(Cl)c(Cl)c4)n3)ccc2n1C [Compound 894]	< 10		
COc1ccc(Nc2nc(Nc3ccc4c(c3)nc(C)n4C)ncc2F)cc1Cl [Compound 895]	< 10		
Cc1nc2cc(Nc3ncc(F)c(Nc4ccc5c(c4)NC(=O)C(C)(C)O5)n3)ccc2n1C [Compound 896]	< 10	< 10	
Cc1nc2cc(Nc3ncc(F)c(Nc4ccc5c(c4)NC(=O)[C@H](C)O5)n3)ccc2n1C [Compound 897]	< 10	< 10	
Cc1nc2cc(Nc3ncc(F)c(Nc4ccc5c(n4)NC(=O)C(C)(C)O5)n3)ccc2n1C [Compound 898, N2-(1,2-Dimethylbenzimidazol-5-yl)-N4-(2,2-dimethyl-3-oxo-4H-5-pyrid[1,4]oxazin-6-yl)-5-Fluoro-2,4-pyrimidinediamine]	< 10	< 10	
Cc1nc2cc(Nc3ncc(F)c(Nc4ccc(Cl)c(Cl)c4)n3)ccc2n1CCO [Compound 899]	< 10	< 10	
COc1ccc(Nc2nc(Nc3ccc4c(c3)nc(C)n4CCO)ncc2F)cc1Cl [Compound 900]	< 10		
Cc1nc2cc(Nc3ncc(F)c(Nc4ccc5c(c4)NC(=O)C(C)(C)O5)n3)ccc2n1CCO [Compound 901]	< 10	< 10	
Cc1nc2cc(Nc3ncc(F)c(Nc4ccc5c(c4)NC(=O)[C@H](C)O5)n3)ccc2n1CCO [Compound 902]		< 10	
Cc1nc2cc(Nc3ncc(F)c(Nc4ccc5c(n4)NC(=O)C(C)(C)O5)n3)ccc2n1CCO [Compound 903, N4-(2,2-Dimethyl-3-oxo-4H-5-pyrid[1,4]oxazin-6-yl)-5-fluoro-N2-[1-(2-hydroxyethyl)-2-methylbenzimidazol-5-yl)-2,4-pyrimidinediamine]		< 10	
Cn1c(=O)[nH]c2cc(Nc3ncc(F)c(Nc4ccc(Cl)c(Cl)c4)n3)ccc21 [Compound 904]	> 10	> 10	
COc1ccc(Nc2nc(Nc3ccc4c(c3)[nH]c(=O)n4C)ncc2F)cc1Cl [Compound 905]	< 10	< 10	
Cn1c(=O)[nH]c2cc(Nc3ncc(F)c(Nc4ccc5c(c4)NC(=O)C(C)(C)O5)n3)ccc21 [Compound 906]	< 10	< 10	
C[C@@H]1Oc2ccc(Nc3nc(Nc4ccc5c(c4)[nH]c(=O)n5C)ncc3F)cc2NC1=O [Compound 907]	< 10	< 10	
Cn1c(=O)[nH]c2cc(Nc3ncc(F)c(Nc4ccc5c(n4)NC(=O)C(C)(C)O5)n3)ccc21 [Compound 908, N4-(2,2-Dimethyl-3-oxo-4H-5-pyrid[1,4]oxazin-6-yl)-N2-(2,3-dihydro-1-methyl-2-oxo-benzimidazol-5-yl)-5-fluoro-2,4-pyrimidinediamine]			IC50 [3]: < 10 µM; IC50 [4]: < 10 µM
Cc1nc2ccc(Nc3ncc(F)c(Nc4ccc5c(c4)NC(=O)C(C)S5(=O)=O)n3)cc2[nH]1 (stereo not drawn) [Compound 909]	< 10		
CC1C(=O)Nc2cc(Nc3nc(Nc4ccc5[nH]c(C(F)(F)F)nc5c4)ncc3F)ccc2S1(=O)=O (stereo not drawn) [Compound 910, 5-Fluoro-N4-(2-methyl-1,1,3-trioxo-2H,4H-benzo[1,4]thiazin-6-yl)-N2-(2-trifluoromethyl-1H-benzimidazol-5-yl)-2,4-pyrimidinediamine]	< 10		
Cn1c(C(F)(F)F)nc2cc(Nc3ncc(F)c(Nc4ccc(Cl)c(Cl)c4)n3)ccc21 [Compound 911]		< 10	
COc1ccc(Nc2nc(Nc3ccc4c(c3)nc(C(F)(F)F)n4C)ncc2F)cc1Cl [Compound 912]		< 10	
Cn1c(C(F)(F)F)nc2cc(Nc3ncc(F)c(Nc4ccc5c(c4)NC(=O)C(C)(C)O5)n3)ccc21 [Compound 913]			IC50 [4]: < 10 µM
C[C@@H]1Oc2ccc(Nc3nc(Nc4ccc5c(c4)nc(C(F)(F)F)n5C)ncc3F)cc2NC1=O [Compound 914]		< 10	

SMILES	IC50 [1] [µM]	IC50 [2] [µM]	other results
OCCn1c(C(F)(F)F)nc2cc(Nc3ncc(F)c(Nc4ccc(Cl)c(Cl)c4)n3)ccc21 [Compound 916]			IC50 [4]: < 10 µM
COc1ccc(Nc2nc(N)nc(-c3ccc4c(c3)nc(C(F)(F)F)n4CCO)c2F)cc1Cl [Compound 917]		< 10	
CC1(C)Oc2ccc(Nc3nc(N)nc(-c4ccc5c(c4)nc(C(F)(F)F)n5CCO)c3F)cc2NC1=O [Compound 918]	< 10	< 10	
C[C@@H]1Oc2ccc(Nc3nc(N)nc(-c4ccc5c(c4)nc(C(F)(F)F)n5CCO)c3F)cc2NC1=O [Compound 919]	< 10	< 10	
COc1ccc(Nc2nc(Nc3ccc4oncc4c3)ncc2F)cc1Cl [Compound 925]	< 10		
CC1(C)Oc2ccc(Nc3nc(Nc4ccc5oncc5c4)ncc3F)cc2NC1=O [Compound 926]		< 10	
C[C@@H]1Oc2ccc(Nc3nc(Nc4ccc5oncc5c4)ncc3F)cc2NC1=O [Compound 927]		< 10	
CC1(C)Oc2ccc(Nc3nc(Nc4ccc5oncc5c4)ncc3F)nc2NC1=O [Compound 928, N2-(1,2-Benzisoxazol-5-yl)-N4-(2,2-dimethyl-3-oxo-4H-5-pyrido[1,4]oxazin-6-yl)-5-fluoro-2,4-pyrimidinediamine]			IC50 [4]: < 10 µM
CC1(C)C(=O)Nc2cc(Nc3nc(Nc4ccc5oncc5c4)ncc3F)ccc2S1(=O)=O [Compound 930]	< 10		
CCn1c(C)nc2cc(Nc3ncc(F)c(Nc4ccc(Cl)c(Cl)c4)n3)ccc21 [Compound 932]	> 10		
CCn1c(C)nc2cc(Nc3ncc(F)c(Nc4ccc(OC)c(Cl)c4)n3)ccc21 [Compound 933]	< 10		
CCn1c(C)nc2cc(Nc3ncc(F)c(Nc4ccc5c(c4)NC(=O)C(C)(C)O5)n3)ccc21 [Compound 934]	< 10		
CCn1c(C)nc2cc(Nc3ncc(F)c(Nc4ccc5c(c4)NC(=O)[C@H](C)O5)n3)ccc21 [Compound 935]	< 10	< 10	
CCn1c(C)nc2cc(Nc3ncc(F)c(Nc4ccc5c(n4)NC(=O)C(C)(C)O5)n3)ccc21 [Compound 936, N4-(2,2-Dimethyl-3-oxo-4H-5-pyrido[1,4]oxazin-6-yl)-N2-(1-ethyl-2-methylbenzimidazol-5-yl)-5-fluoro-2,4-pyrimidinediamine]			IC50 [3]: < 10 µM
OCCCn1c(C(F)(F)F)nc2cc(Nc3ncc(F)c(Nc4ccc(Cl)c(Cl)c4)n3)ccc21 [Compound 937]	< 10	< 10	
COc1ccc(Nc2nc(Nc3ccc4c(c3)nc(C(F)(F)F)n4CCCO)ncc2F)cc1Cl [Compound 938]	< 10		
CC1(C)Oc2ccc(Nc3nc(Nc4ccc5c(c4)nc(C(F)(F)F)n5CCCO)ncc3F)cc2NC1=O [Compound 939]	< 10	< 10	
C[C@@H]1Oc2ccc(Nc3nc(Nc4ccc5c(c4)nc(C(F)(F)F)n5CCCO)ncc3F)cc2NC1=O [Compound 940]	< 10	< 10	
CC1(C)Oc2ccc(Nc3nc(Nc4ccc5c(c4)nc(C(F)(F)F)n5CCCO)ncc3F)nc2NC1=O [Compound 941, N4-(2,2-Dimethyl-3-oxo-4H-5-pyrido[1,4]oxazin-6-yl)-5-fluoro-N2-[1-(3-hydroxypropyl)-2-trifluoromethylbenzimidazol-5-yl]-2,4-pyrimidinediamine]			IC50 [3]: < 10 µM; IC50 [4]: < 10 µM
C[C@@H]1Oc2ccc(Nc3nc(Nc4ccc5c(c4)nc(N4CCOCC4)n5C)ncc3F)cc2NC1=O [Compound 945, (S)-5-Fluoro-N2-[1-methyl-2-(4-morpholino)benzimidazol-5-yl]-N4-(2-methyl-3-oxo-2H,4H-benz[1,4]oxazin-6-yl)-2,4-pyrimidinediamine]			IC50 [3]: < 10 µM; IC50 [4]: < 10 µM
Cn1c(N2CCOCC2)nc2cc(Nc3ncc(F)c(Nc4ccc5c(n4)NC(=O)C(C)(C)O5)n3)ccc21 [Compound 946, N4-(2,2-Dimethyl-3-oxo-4H-5-pyrido[1,4]oxazin-6-yl)-5-fluoro-N2-[1-methyl-2-(4-morpholino)benzimidazol-5-yl]-2,4-pyrimidinediamine]			IC50 [3]: < 10 µM; IC50 [4]: < 10 µM
Cc1nc2cc(Nc3ncc(F)c(Nc4ccc(Cl)c(Cl)c4)n3)ccc2n1CCCO [Compound 947]		< 10	
COc1ccc(Nc2nc(Nc3ccc4c(c3)nc(C)n4CCCO)ncc2F)cc1Cl [Compound 948]		< 10	
Cc1nc2cc(Nc3ncc(F)c(Nc4ccc5c(c4)NC(=O)C(C)(C)O5)n3)ccc2n1CCCO [Compound 949]		< 10	
Cc1nc2cc(Nc3ncc(F)c(Nc4ccc5c(c4)NC(=O)[C@H](C)O5)n3)ccc2n1CCCO [Compound 950]		< 10	
Cc1nc2cc(Nc3ncc(F)c(Nc4ccc5c(n4)NC(=O)C(C)(C)O5)n3)ccc2n1CCCO [Compound 951, N4-(2,2-Dimethyl-3-oxo-4H-5-pyrido[1,4]oxazin-6-yl)-5-fluoro-N2-[1-(3-hydroxypropyl)-2-methylbenzimidazol-5-yl]-2,4-pyrimidinediamine]			IC50 [3]: < 10 µM; IC50 [4]: < 10 µM
CC(=O)NCCCn1c(C)nc2cc(Nc3ncc(F)c(Nc4ccc5c(c4)NC(=O)C(C)(C)O5)n3)ccc21 [Compound 952]	< 10	< 10	
